Reference: patent US11760784B2, “Compositions comprising PEDF-derived short peptides and uses thereof” (BRIM Biotechnology, Inc., priority 2016, dated 2023)

Experiments:
[1] = test system: IL-1β mRNA; experiment: Ocular IL-1β mRNA by quantitative real-time PCR in CEC dry eye mice; format: in vivo, C57BL6 mice; conditions: CEC 14 days, then topical PDSP for 5 days
Experimental: (§1) Dry eye is associated with abnormalities in the pre-corneal tear film and subsequent inflammatory changes in the entire ocular surface including the adnexa, conjunctiva and cornea. (see, Hessen et al., “Dry eye: An Inflammatory Ocular Disease,” J. Ophthalmic Vis. Res., 2014, 9(2): 240-250). Therefore, the effects of PDSPs in corneal inflammatory responses were next examined. Briefly, C57BL6 mice were housed in CEC for 14 days (Day 0) and then treatment with PDSP or vehicle were performed for additional 5 days (Day 5). Then, mRNA levels for inflammatory factors were evaluated by quantitative real-time PCR.
(§2) The total RNA was extracted from cells using TRIzol (Invitrogen) and treated with RNase free DNase I (Qiagen, Santa Clarita, CA) to remove genomic DNA and then purified with an RNA purification kit (Dynabeads; Invitrogen). […] Quantitative real-time PCR was performed in a GeneAmp 7700 sequence detection system (Applied Biosystems, Foster City, CA). […] All determinations were measured in triplicate. The cycle threshold (Ct) values corresponded to the PCR cycle number at which fluorescence emission in real time reaches a threshold above the base-line emission were analyzed using GeneAmp 7700 SDS software. The Ct value of the PCR product of interest and a control mRNA (GAPDH) were then used to calculate relative quantities of mRNA between samples.

[2] = test system: IL-6 mRNA; experiment: Ocular IL-6 mRNA by quantitative real-time PCR in CEC dry eye mice; format: in vivo, C57BL6 mice; conditions: CEC 14 days, then topical PDSP for 5 days
Experimental: as §1, §2

[3] = test system: intracellular ROS in rabbit corneal epithelial cells; experiment: Intracellular ROS (H2DCFDA probe) in NaCl-treated corneal epithelial cells; format: cell-based
Experimental: We therefore examined the effects of PDSP on the intracellular ROS and GSH levels in NaCl-treated (HOP) rabbit corneal epithelial cells. Briefly, rabbit corneal epithelial cells were pretreated with 10 μM PDSP or a negative control peptide (ConP) for 20 hours, followed by treatment with NaCl to induce hyperosmotic stress. After NaCl treatment for another 24 hours, cells were assessed for ROS using a 2′,7′-dichlorodihydrofluorescein diacetate (H2DCFDA) probe, which is an ROS indicator dye. […]
Intracellular ROS generation was assayed using 2′,7′-dichlorodihydrofluorescein diacetate (H2DCFDA; Molecular Probes, Eugene, Oreg.) which, when oxidized by ROS, releases the green fluorescent compound 2′,7′-dichlorofluorescein (DCF). […] Fluorescence (excitation, 488 nm; emission, 520 nm) was measured with a Spectra MAX GEMINI Reader (Molecular Devices, Sunnyvale, Calif., USA). The background fluorescence from control wells without the addition of H2DCFDA was subtracted from the experimental readings.
To investigate the effect of hyperosmotic stress on the intracellular ROS formation, rabbit corneal epithelial cells were cultured in a hyperosmotic medium (463 mOsM) by adding 90 mM NaCl for 24 hours. The intracellular ROS levels were detected by H2DCFDA probe and measured the formation of DCF-fluorescence by spectrofluorometer.

PDSP: 29mer, residues 93-121 of human PEDF: SLGAEQRTESIIHRALYYDLISSPDIHGT (SEQ ID NO:4) (listed as Homo sapiens)
repression of ocular IL-1β mRNA expression compared to vehicle-treated group [1]: 2.4 fold
repression of ocular IL-6 mRNA expression compared to vehicle-treated group [2]: 2.0 fold
DCF fluorescence without HOP (peptide alone) ([3]; 10 μM PDSP, isotonic medium, compared to untreated): did not increase DCF fluorescence
suppression of DCF-fluorescence level compared to cells treated with NaCl alone ([3]; 10 μM peptide pretreatment 20 hours, then hyperosmotic medium (463 mOsM, 90 mM NaCl) 24 hours): 1.3 fold
